Experimental data reported in PMC2707616, “Platensimycin Activity against Mycobacterial β-Ketoacyl-ACP Synthases” (PLoS ONE, 2009).
In brackets after ≈: the same amount, converted by molar mass. Read-outs that look alike come from different tables or passages of the source.

Assays:
[1] = test system: M. bovis BCG pVV16; test: microbe, parasite or virus in culture; type: cell-based; conditions: Mycobacterium tuberculosis variant bovis BCG
[2] = test system: M. smegmatis pVV16- FabH; test: microbe, parasite or virus in culture; type: cell-based, Mycobacterium smegmatis; conditions: Mycolicibacterium smegmatis, PVV16FABH
[3] = test system: S. aureus FabH; design: method as in PMID 17456595; conditions: S. aureus FabH ref 2; cited from earlier work
[4] = test system: M. bovis BCG pVV16- KasB; test: microbe, parasite or virus in culture; type: cell-based; conditions: Mycobacterium tuberculosis variant bovis BCG
[5] = target: T1, Mt-KasA (Mycobacterium tuberculosis, UniProt P9WQD9); test: biochemical
T1 construct: made in house
T1 sequence (P9WQD9 whole entry): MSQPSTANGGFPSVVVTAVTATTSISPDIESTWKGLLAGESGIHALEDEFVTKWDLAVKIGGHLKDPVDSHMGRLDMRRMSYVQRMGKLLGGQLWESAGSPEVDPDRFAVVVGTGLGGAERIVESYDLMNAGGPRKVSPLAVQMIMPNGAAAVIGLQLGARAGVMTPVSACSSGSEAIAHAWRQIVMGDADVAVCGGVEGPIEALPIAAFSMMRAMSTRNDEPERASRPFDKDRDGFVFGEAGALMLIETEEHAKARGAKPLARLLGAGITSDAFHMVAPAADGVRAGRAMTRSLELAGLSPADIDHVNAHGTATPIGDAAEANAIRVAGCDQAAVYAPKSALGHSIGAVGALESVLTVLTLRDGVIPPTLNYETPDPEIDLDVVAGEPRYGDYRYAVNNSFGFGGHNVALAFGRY

[6] = target: T2, Mt-KasB (Mycobacterium tuberculosis, UniProt P9WQD7); test: biochemical
T2 construct: made in house
T2 sequence (P9WQD7 whole entry): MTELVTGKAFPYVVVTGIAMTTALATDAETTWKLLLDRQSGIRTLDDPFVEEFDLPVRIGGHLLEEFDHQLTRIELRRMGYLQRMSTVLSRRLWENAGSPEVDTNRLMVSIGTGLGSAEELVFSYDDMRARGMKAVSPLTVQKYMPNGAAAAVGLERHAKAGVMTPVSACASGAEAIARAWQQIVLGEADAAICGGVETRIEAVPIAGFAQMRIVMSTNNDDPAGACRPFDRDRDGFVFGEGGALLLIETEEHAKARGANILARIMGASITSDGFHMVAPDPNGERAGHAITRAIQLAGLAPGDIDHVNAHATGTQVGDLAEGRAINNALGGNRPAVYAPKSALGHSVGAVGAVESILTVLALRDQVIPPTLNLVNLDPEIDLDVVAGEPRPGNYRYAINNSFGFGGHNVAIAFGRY

[7] = test system: C. glutamicum; test: Growth of cultures; type: cell-based; conditions: data not shown
[8] = test system: Cg-FAS-I; test: FAS-I activity in crude cell free extracts; type: biochemical, C. glutamicum; conditions: crude cell free extract, standard error in brackets
Protocol: FAS-I extracts from M. smegmatis and C. glutamicum were prepared as described previously. FAS-I experiments were conducted as described using the 40–80% ammonium sulfate fraction. Briefly, platensimycin was titred (0.1–150 µg/ml) into the standard reaction as follows: 100 mM potassium phosphate pH 7.0, 5 mM EDTA, 5 mM dithiothreitol, 300 µM acetyl-CoA, 100 µM NADPH, 100 µM NADH, 1 µM flavin mononucleotide, 500 µM α-cyclodextrin, 20 µM malonyl-CoA, 100,000 cpm of [2-^14C] malonyl-CoA, and 100 µl of the cytosolic enzyme preparation (1 mg of protein) in a total volume of 500 µl. Reactions were performed in triplicate at 37°C for 1 h and terminated by the addition of 500 µl of 20% potassium hydroxide in 50% methanol at 100°C for 30 min. Following acidification with 300 µl of 6 M HCl, the resultant [^14C]-labelled fatty acids were extracted three times with petroleum ether. The organic extracts were pooled, washed once with an equal volume of water, and dried in a scintillation vial prior to scintillation counting using 5 ml of EcoScintA (National Diagnostics, Hull, U.K.).

[9] = test system: human FAS-I; design: method as in earlier work; conditions: cited from earlier work
[10] = test system: M. bovis BCG pVV16- KasA; test: microbe, parasite or virus in culture; type: cell-based; conditions: Mycobacterium tuberculosis variant bovis BCG
[11] = test system: M. bovis BCGΔ KasB; type: cell-based, Mycobacterium bovis BCG
[12] = test system: M. smegmatis pVV16- KasAB; test: microbe, parasite or virus in culture; type: cell-based, Mycobacterium smegmatis; conditions: Mycolicibacterium smegmatis, PVV16KASAB
[13] = test system: rat FAS-I; design: method as in earlier work; conditions: cited from earlier work
[14] = test system: HeLa; conditions: mammalian cell toxicity ref 3; cited from earlier work
[15] = test system: M. bovis BCG; test: microbe, parasite or virus in culture; type: cell-based
[16] = test system: M. tuberculosis H37Rv; test: microbe, parasite or virus in culture; type: cell-based; conditions: Mycobacterium tuberculosis, solid medium
[17] = test system: M. tuberculosis CDC1551; test: microbe, parasite or virus in culture; type: cell-based; conditions: Mycobacterium tuberculosis; M. tuberculosis CDC1551, solid medium
[18] = test system: M. smegmatis mc^2155; type: cell-based, Mycobacterium smegmatis
[19] = test system: M. smegmatis pVV16- KasB; test: microbe, parasite or virus in culture; type: cell-based, Mycobacterium smegmatis
[20] = test system: M. smegmatis mc^2155; test: MIC99 by Alamar Blue testing, liquid medium; type: cell-based, Mycobacterium smegmatis; conditions: Mycolicibacterium smegmatis
[21] = test system: M. smegmatis; test: Growth and viable count (CFU) of cultures over 72 h, revival after washing; type: cell-based, Mycobacterium smegmatis
[22] = target: T3, Mt-FabH (Mycobacterium tuberculosis, UniProt P9WNG3); test: biochemical
T3 construct: made in house
T3 sequence (P9WNG3 whole entry): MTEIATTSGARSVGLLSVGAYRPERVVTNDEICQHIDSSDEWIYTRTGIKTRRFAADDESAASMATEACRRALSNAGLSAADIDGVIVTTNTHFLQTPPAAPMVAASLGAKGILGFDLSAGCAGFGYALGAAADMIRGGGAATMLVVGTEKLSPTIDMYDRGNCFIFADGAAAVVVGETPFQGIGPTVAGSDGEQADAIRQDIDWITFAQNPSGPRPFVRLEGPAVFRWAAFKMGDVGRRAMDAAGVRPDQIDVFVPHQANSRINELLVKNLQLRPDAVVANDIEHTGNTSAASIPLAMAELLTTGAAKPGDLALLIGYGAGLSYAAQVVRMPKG

[23] = test system: M. smegmatis pVV16- KasA; test: microbe, parasite or virus in culture; type: cell-based, Mycobacterium smegmatis
[24] = test system: M. smegmatis pVV16; test: MIC99 by Alamar Blue testing, vector control strain; type: cell-based, Mycobacterium smegmatis; conditions: Mycolicibacterium smegmatis
[25] = test system: Candida albicans; design: method as in PMID 16710421; conditions: cited from earlier work
[26] = test system: KasA; conditions: cited from earlier work
[27] = test system: KasB; conditions: KasB ref 25; cited from earlier work

Structure (SMILES): CC12C[C@@]34C=CC(=O)[C@@](C)(CCC(=O)Nc5c(O)ccc(C(=O)O)c5O)C3[C@H](CC1C4)O2 (stereo partly drawn) [platensimycin]
- MIC99 [1]: > 128 µg/mL
- MIC99 [2]: 16 µg/mL (≈ 36.2 µM)
- IC50 [3]: 67 µM
- MIC99 [4]: > 128 µg/mL
- IC50 [5]: 4.53 µM
- IC50 ([5]; standard error in brackets): 4.53 µM
- IC50 [6]: 9.51 µM
- IC50 ([6]; standard error in brackets): 9.51 µM
- growth of cultures of C. glutamicum [7]: failed to inhibit growth
- IC50 [8]: 6.5 (0.2) µg/ml
- human FAS-I inhibition in vitro [9]: inhibited
- MIC99 [10]: > 128 µg/mL
- MIC99 [11]: 61 µg/mL (≈ 138 µM)
- MIC99 [12]: 126 µg/mL (≈ 285 µM)
- rat FAS-I inhibition in vitro [13]: inhibited
- IC50 of HeLa MTT [14]: > 1000 µg/mL
- MIC99 [15]: >128 µg/mL
- MIC99 ([15]; Mycobacterium tuberculosis variant bovis BCG, read-out: MIC99): > 128 µg/mL
- MIC99 [16]: 12 µg/mL (≈ 27.2 µM)
- MIC99 [17]: 12 µg/mL (≈ 27.2 µM)
- Biosynthesis of fatty acids and α- and epoxy-mycolic acids ([18]; 20–40 µg/ml, [14C]acetate labelling): significantly inhibited
- α′-MAMEs level ([18]; lower concentrations, 10–20 µg/ml): accumulation
- synthesis of mycolate containing lipids GMM and TDM ([18]; platensimycin-treated cultures, 20-40 µg/ml): reduced
- increase in the MIC on Mt-KasB overexpression ([19]; MIC to 124 µg/ml): 9 fold
- MIC99 ([19]; Mycolicibacterium smegmatis, PVV16KASB, M. smegmatis pVV16- KasB): 124 µg/mL (≈ 281 µM)
- MIC99 [20]: 14 µg/mL (≈ 31.7 µM)
- decrease in CFU ([21]; 14 µg/ml platensimycin, 72 hours, LB broth): 2 log
- nature of the antibiotic effect (revival after washing and re-inoculation) ([21]; cells exposed for 72 hours): bacteristatic
- IC50 [22]: > 340 µM
- increase in resistance (MIC) on Mt-KasA overexpression ([23]; MIC from 14 to 30 µg/ml): 2 fold
- MIC99 ([23]; Mycolicibacterium smegmatis, PVV16KASA, M. smegmatis pVV16- KasA): 30 µg/mL (≈ 68 µM)
- MIC99 [24]: 14 µg/mL (≈ 31.7 µM)
- antifungal activity against Candida albicans [25]: > 64 µg/mL

Structure (SMILES): C=C/C(C)=C/[C@@]1(C)SC(=O)C(C)=C1O [TLM, thiolactomycin]
- IC50 [26]: 20 µM
- IC50 [27]: 90 µM

Structure (SMILES): C=C1C[C@@]23C=CC(=O)[C@@](C)(CCC(=O)Nc4c(O)ccc(C(=O)O)c4O)[C@@H]2C[C@@H]1CC3 [platencin]
- IC50 [3]: 9.17 µM
